Measurements: PubChem BioAssay (NCI)
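The compound was tested at five concentrations on cells cultured in 96-well plates, with a 48-hour exposure period. GI50 is the concentration that inhibits growth by half. TGI denotes the concentration required for complete inhibition of growth.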

Legend:
Experiment in all cases: DTP human tumour cell line panel, 48 h
RXF 393 renal = test system: RXF 393 renal
MOLT-4 leukemia = test system: MOLT-4 leukemia
SK-MEL-5 melanoma = test system: SK-MEL-5 melanoma
OVCAR-8 ovarian = test system: OVCAR-8 ovarian
HCC-2998 colon = test system: HCC-2998 colon
SNB-19 CNS = test system: SNB-19 CNS
A549 NSCLC = test system: A549 NSCLC
HOP-62 NSCLC = test system: HOP-62 NSCLC
NCI-H460 lung = test system: NCI-H460 lung
EKVX NSCLC = test system: EKVX NSCLC
SW-620 colon = test system: SW-620 colon
M14 melanoma = test system: M14 melanoma
MDA-MB-435 = test system: MDA-MB-435
UACC-257 melanoma = test system: UACC-257 melanoma
HOP-92 NSCLC = test system: HOP-92 NSCLC
NCI/ADR-RES ovarian = test system: NCI/ADR-RES ovarian
DU-145 prostate = test system: DU-145 prostate
MCF7 breast = test system: MCF7 breast
SF-539 CNS = test system: SF-539 CNS
NCI-H226 lung = test system: NCI-H226 lung
SF-295 CNS = test system: SF-295 CNS
COLO 205 colon = test system: COLO 205 colon
SN12C renal = test system: SN12C renal
HT29 colon = test system: HT29 colon
NCI-H522 lung = test system: NCI-H522 lung
HCT-15 colon = test system: HCT-15 colon
RPMI-8226 leukemia = test system: RPMI-8226 leukemia
U251 CNS = test system: U251 CNS
SNB-75 CNS = test system: SNB-75 CNS
HS 578T breast = test system: HS 578T breast
LOX IMVI melanoma = test system: LOX IMVI melanoma
SF-268 CNS = test system: SF-268 CNS
NCI-H23 lung = test system: NCI-H23 lung
786-0 renal = test system: 786-0 renal
UACC-62 melanoma = test system: UACC-62 melanoma
KM12 colon = test system: KM12 colon
SK-MEL-28 melanoma = test system: SK-MEL-28 melanoma
SK-MEL-2 melanoma = test system: SK-MEL-2 melanoma
HCT-116 colon = test system: HCT-116 colon
T-47D breast = test system: T-47D breast
TK-10 renal = test system: TK-10 renal
IGROV1 ovarian = test system: IGROV1 ovarian
OVCAR-3 ovarian = test system: OVCAR-3 ovarian
CCRF-CEM leukemia = test system: CCRF-CEM leukemia
K-562 leukemia = test system: K-562 leukemia
ACHN renal = test system: ACHN renal
PC-3 prostate = test system: PC-3 prostate
OVCAR-4 ovarian = test system: OVCAR-4 ovarian
SK-OV-3 ovarian = test system: SK-OV-3 ovarian
BT-549 breast = test system: BT-549 breast
MALME-3M melanoma = test system: MALME-3M melanoma
CAKI-1 renal = test system: CAKI-1 renal
OVCAR-5 ovarian = test system: OVCAR-5 ovarian
UO-31 renal = test system: UO-31 renal

Q: With `N#Cc1c(N2CCCC2)[nH]c(=O)c(C(c2c(Cl)cccc2Cl)c2c(O)c(C#N)c(N3CCCC3)[nH]c2=O)c1O` as the compound, how does the GI50 (RXF 393 renal) read?
A: 2.69 µM

Q: And the TGI (RXF 393 renal)?
A: 15.4 µM

Q: What about the GI50 (MOLT-4 leukemia) of the same compound?
A: > 100 µM

Q: And the TGI (MOLT-4 leukemia)?
A: > 100 µM

Q: And the GI50 (SK-MEL-5 melanoma)?
A: 0.409 µM

Q: And the TGI (SK-MEL-5 melanoma)?
A: 13.5 µM

Q: And the GI50 (OVCAR-8 ovarian)?
A: 15.8 µM

Q: And the TGI (OVCAR-8 ovarian)?
A: 33.1 µM

Q: What about the GI50 (HCC-2998 colon) of the same compound?
A: 12.1 µM

Q: What about the TGI (HCC-2998 colon) of the same compound?
A: 25.7 µM

Q: What about the GI50 (SNB-19 CNS) of the same compound?
A: 4.24 µM

Q: What about the TGI (SNB-19 CNS) of the same compound?
A: 18.2 µM

Q: And the GI50 (A549 NSCLC)?
A: 18.8 µM

Q: And the TGI (A549 NSCLC)?
A: 36 µM

Q: What about the GI50 (HOP-62 NSCLC) of the same compound?
A: 21.2 µM

Q: What about the TGI (HOP-62 NSCLC) of the same compound?
A: 49.6 µM

Q: And the GI50 (NCI-H460 lung)?
A: 18.2 µM

Q: What about the TGI (NCI-H460 lung) of the same compound?
A: 38.4 µM

Q: And the GI50 (EKVX NSCLC)?
A: 0.0367 µM

Q: And the TGI (EKVX NSCLC)?
A: 17.1 µM

Q: What about the GI50 (SW-620 colon) of the same compound?
A: 3.91 µM

Q: What about the TGI (SW-620 colon) of the same compound?
A: 18.4 µM

Q: And the GI50 (M14 melanoma)?
A: 11.4 µM

Q: What about the TGI (M14 melanoma) of the same compound?
A: 24 µM

Q: And the GI50 (MDA-MB-435)?
A: 9.6 µM

Q: And the TGI (MDA-MB-435)?
A: 25.2 µM

Q: What about the GI50 (UACC-257 melanoma) of the same compound?
A: 12.4 µM

Q: What about the TGI (UACC-257 melanoma) of the same compound?
A: 26.7 µM

Q: And the GI50 (HOP-92 NSCLC)?
A: 10.2 µM

Q: And the TGI (HOP-92 NSCLC)?
A: 28.5 µM

Q: What about the GI50 (NCI/ADR-RES ovarian) of the same compound?
A: 15.4 µM

Q: And the TGI (NCI/ADR-RES ovarian)?
A: 33.8 µM

Q: And the GI50 (DU-145 prostate)?
A: 5.57 µM

Q: What about the TGI (DU-145 prostate) of the same compound?
A: 18.4 µM

Q: What about the GI50 (MCF7 breast) of the same compound?
A: 14.2 µM

Q: And the TGI (MCF7 breast)?
A: 49.8 µM

Q: And the GI50 (SF-539 CNS)?
A: 0.369 µM

Q: And the TGI (SF-539 CNS)?
A: 10.9 µM

Q: What about the GI50 (NCI-H226 lung) of the same compound?
A: 10.9 µM

Q: What about the TGI (NCI-H226 lung) of the same compound?
A: 24.4 µM

Q: And the GI50 (SF-295 CNS)?
A: 18.7 µM

Q: What about the TGI (SF-295 CNS) of the same compound?
A: 37.4 µM

Q: And the GI50 (COLO 205 colon)?
A: 5.11 µM

Q: What about the TGI (COLO 205 colon) of the same compound?
A: 17.4 µM

Q: And the GI50 (SN12C renal)?
A: 13.6 µM

Q: What about the TGI (SN12C renal) of the same compound?
A: 33.9 µM

Q: And the GI50 (HT29 colon)?
A: 15.8 µM

Q: What about the TGI (HT29 colon) of the same compound?
A: 35.5 µM

Q: And the GI50 (NCI-H522 lung)?
A: 9.74 µM

Q: What about the TGI (NCI-H522 lung) of the same compound?
A: 35.1 µM

Q: And the GI50 (HCT-15 colon)?
A: 7.7 µM

Q: What about the TGI (HCT-15 colon) of the same compound?
A: 26.9 µM

Q: What about the GI50 (RPMI-8226 leukemia) of the same compound?
A: 2.54 µM

Q: What about the TGI (RPMI-8226 leukemia) of the same compound?
A: 18.4 µM

Q: And the GI50 (U251 CNS)?
A: 13.4 µM

Q: What about the TGI (U251 CNS) of the same compound?
A: 95.1 µM

Q: What about the GI50 (SNB-75 CNS) of the same compound?
A: 12.5 µM

Q: And the TGI (SNB-75 CNS)?
A: 33 µM

Q: And the GI50 (HS 578T breast)?
A: 2.75 µM

Q: What about the TGI (HS 578T breast) of the same compound?
A: 19.1 µM

Q: What about the GI50 (LOX IMVI melanoma) of the same compound?
A: 11.6 µM

Q: What about the TGI (LOX IMVI melanoma) of the same compound?
A: 37.2 µM

Q: And the GI50 (SF-268 CNS)?
A: 11.9 µM

Q: What about the TGI (SF-268 CNS) of the same compound?
A: 29.3 µM

Q: What about the GI50 (NCI-H23 lung) of the same compound?
A: 11.6 µM

Q: And the TGI (NCI-H23 lung)?
A: 31 µM

Q: And the GI50 (786-0 renal)?
A: 4.34 µM

Q: What about the TGI (786-0 renal) of the same compound?
A: > 100 µM

Q: And the GI50 (UACC-62 melanoma)?
A: 4.71 µM

Q: What about the TGI (UACC-62 melanoma) of the same compound?
A: 20.5 µM

Q: What about the GI50 (KM12 colon) of the same compound?
A: 22.6 µM

Q: And the TGI (KM12 colon)?
A: 54 µM

Q: And the GI50 (SK-MEL-28 melanoma)?
A: 5.34 µM

Q: What about the TGI (SK-MEL-28 melanoma) of the same compound?
A: 40.6 µM

Q: What about the GI50 (SK-MEL-2 melanoma) of the same compound?
A: 16.6 µM

Q: What about the TGI (SK-MEL-2 melanoma) of the same compound?
A: 45.4 µM

Q: And the GI50 (HCT-116 colon)?
A: 14.7 µM

Q: What about the TGI (HCT-116 colon) of the same compound?
A: 40 µM

Q: And the GI50 (T-47D breast)?
A: 3.13 µM

Q: What about the TGI (T-47D breast) of the same compound?
A: 13.4 µM

Q: And the GI50 (TK-10 renal)?
A: 12.4 µM

Q: And the TGI (TK-10 renal)?
A: 29.6 µM

Q: And the GI50 (IGROV1 ovarian)?
A: 19 µM

Q: What about the TGI (IGROV1 ovarian) of the same compound?
A: 56.5 µM

Q: And the GI50 (OVCAR-3 ovarian)?
A: 3.33 µM

Q: And the TGI (OVCAR-3 ovarian)?
A: 14.3 µM

Q: And the GI50 (CCRF-CEM leukemia)?
A: 1.91 µM

Q: And the TGI (CCRF-CEM leukemia)?
A: 5.06 µM

Q: And the GI50 (K-562 leukemia)?
A: 27.4 µM

Q: What about the TGI (K-562 leukemia) of the same compound?
A: > 100 µM

Q: And the GI50 (ACHN renal)?
A: 16.8 µM

Q: And the TGI (ACHN renal)?
A: 34.1 µM

Q: What about the GI50 (PC-3 prostate) of the same compound?
A: 14.5 µM

Q: And the TGI (PC-3 prostate)?
A: 28.3 µM

Q: And the GI50 (OVCAR-4 ovarian)?
A: 17.5 µM

Q: What about the TGI (OVCAR-4 ovarian) of the same compound?
A: 33.7 µM

Q: What about the GI50 (SK-OV-3 ovarian) of the same compound?
A: 0.0847 µM

Q: What about the TGI (SK-OV-3 ovarian) of the same compound?
A: 21 µM

Q: And the GI50 (BT-549 breast)?
A: 2.3 µM

Q: What about the TGI (BT-549 breast) of the same compound?
A: 6.25 µM

Q: And the GI50 (MALME-3M melanoma)?
A: 19.3 µM

Q: And the TGI (MALME-3M melanoma)?
A: 36.4 µM

Q: What about the GI50 (CAKI-1 renal) of the same compound?
A: 10.7 µM

Q: And the TGI (CAKI-1 renal)?
A: 24 µM

Q: What about the GI50 (OVCAR-5 ovarian) of the same compound?
A: 19.2 µM

Q: What about the TGI (OVCAR-5 ovarian) of the same compound?
A: 38.3 µM

Q: What about the GI50 (UO-31 renal) of the same compound?
A: 16.1 µM

Q: And the TGI (UO-31 renal)?
A: 35.9 µM
